Test results reported in patent US10611730B2, “Benzimidazolone and benzothiazolone compounds and their use as AMPA receptor modulators” (Janssen Pharmaceutica NV, priority 2015, dated 2020).

Target: TARP γ8 dependent AMPA receptor (GluA1o-g8 fusion channel) (Homo sapiens (Human), UniProt P42261+Q8WXS5)
Assay: Calcium flux assay (FLIPR), HEK293 cells expressing GRIA1o-CACNG8 fusion
Assay type: cell-based
Settings: inhibition of calcium flux after 15 μM glutamate, read-out: GluR1-γ8 pIC50 (converted)
Procedure, shortened: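 Stable HEK293 clone expressing GluA1o-γ8 fusion (1:1 stoichiometry), loaded with Calcium-5/6 dye plus test compound; glutamate-evoked fluorescence normalized to control wells. Concentration-response fitted to four-parameter logistic, midpoint taken as inhibitory potency.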

Sequence of TARP γ8 dependent AMPA receptor (GluA1o-g8 fusion channel) (P42261 other isoform, or with tags, fused parts or gaps): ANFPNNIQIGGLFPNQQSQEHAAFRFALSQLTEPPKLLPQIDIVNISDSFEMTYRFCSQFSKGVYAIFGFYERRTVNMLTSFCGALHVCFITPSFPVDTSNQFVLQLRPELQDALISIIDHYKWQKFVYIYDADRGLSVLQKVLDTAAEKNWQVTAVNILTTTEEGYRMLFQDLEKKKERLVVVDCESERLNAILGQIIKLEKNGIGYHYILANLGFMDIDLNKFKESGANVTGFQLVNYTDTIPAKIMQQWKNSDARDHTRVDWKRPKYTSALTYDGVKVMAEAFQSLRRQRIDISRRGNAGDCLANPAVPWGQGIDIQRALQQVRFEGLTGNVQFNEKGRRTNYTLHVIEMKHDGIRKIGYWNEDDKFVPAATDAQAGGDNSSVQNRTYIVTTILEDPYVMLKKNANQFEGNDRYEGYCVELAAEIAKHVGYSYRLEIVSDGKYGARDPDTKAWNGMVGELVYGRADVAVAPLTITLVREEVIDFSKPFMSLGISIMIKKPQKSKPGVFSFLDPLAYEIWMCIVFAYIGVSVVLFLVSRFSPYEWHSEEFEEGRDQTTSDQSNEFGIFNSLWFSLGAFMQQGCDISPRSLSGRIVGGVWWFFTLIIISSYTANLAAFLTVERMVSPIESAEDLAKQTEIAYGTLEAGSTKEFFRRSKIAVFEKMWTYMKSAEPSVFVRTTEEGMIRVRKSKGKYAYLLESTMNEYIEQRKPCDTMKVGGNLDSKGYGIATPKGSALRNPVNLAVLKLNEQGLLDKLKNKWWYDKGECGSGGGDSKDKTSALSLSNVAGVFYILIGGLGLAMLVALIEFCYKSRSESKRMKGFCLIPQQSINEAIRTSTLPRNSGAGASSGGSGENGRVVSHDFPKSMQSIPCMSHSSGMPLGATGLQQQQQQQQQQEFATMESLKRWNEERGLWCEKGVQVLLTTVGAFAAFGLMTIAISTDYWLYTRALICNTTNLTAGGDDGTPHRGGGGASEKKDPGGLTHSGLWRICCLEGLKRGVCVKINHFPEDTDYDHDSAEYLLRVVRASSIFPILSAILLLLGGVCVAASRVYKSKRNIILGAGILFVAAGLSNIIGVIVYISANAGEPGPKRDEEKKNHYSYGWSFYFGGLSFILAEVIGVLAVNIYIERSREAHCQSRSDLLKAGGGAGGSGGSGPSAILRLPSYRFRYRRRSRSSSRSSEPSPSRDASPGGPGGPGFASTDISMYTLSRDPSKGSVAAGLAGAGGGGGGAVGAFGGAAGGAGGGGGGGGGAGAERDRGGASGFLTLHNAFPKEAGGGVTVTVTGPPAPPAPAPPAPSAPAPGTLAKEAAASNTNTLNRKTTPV

Structure (SMILES)	IC50
COc1cccc(OC(C)(C)C)c1-c1ccc2[nH]c(=O)[nH]c2c1 [Example 117, 5-(2-tert-Butoxy-6-methoxy-phenyl)-1,3-dihydrobenzimidazol-2-one]	1000 nM
O=c1[nH]c2ccc(-c3cccc(OCC4CC4(F)F)c3Cl)cc2[nH]1 (racemic) [Example 111, (±)-5-[2-Chloro-3-[(2,2-difluorocyclopropyl)methoxy]phenyl]-1,3-dihydrobenzimidazol-2-one]	50.1 nM
COc1cccc(OCC(C)(C)C)c1-c1ccc2[nH]c(=O)[nH]c2c1 [Example 104, 5-[2-(2,2-Dimethylpropoxy)-6-methoxy-phenyl]-1,3-dihydrobenzimidazol-2-one]	100 nM
Cc1c(-c2ccc3[nH]c(=O)[nH]c3c2)cccc1-c1nnc(C(F)(F)F)o1 [Example 198, 5-[2-Methyl-3-[5-(trifluoromethyl)-1,3,4-oxadiazol-2-yl]phenyl]-1,3-dihydrobenzimidazol-2-one]	20 nM
Cc1c(-c2ccc3[nH]c(=O)sc3c2)cccc1-c1noc(C2CC2)n1 [Example 74, 6-[3-(5-Cyclopropyl-1,2,4-oxadiazol-3-yl)-2-methyl-phenyl]-3H-1,3-benzothiazol-2-one]	3980 nM
N#CCc1cccc(C2CC2)c1-c1ccc2[nH]c(=O)[nH]c2c1 [Example 138, 2-[3-Cyclopropyl-2-(2-oxo-1,3-dihydrobenzimidazol-5-yl)phenyl]acetonitrile]	100 nM
Cc1noc(C)c1-c1cccc(Cl)c1-c1ccc2[nH]c(=O)[nH]c2c1 [Example 174, 5-[2-Chloro-6-(3,5-dimethylisoxazol-4-yl)phenyl]-1,3-dihydrobenzimidazol-2-one]	794 nM
CC(C)Oc1cccc(OC(C)C)c1-c1ccc2[nH]c(=O)[nH]c2c1 [Example 107, 5-(2,6-Diisopropoxyphenyl)-1,3-dihydrobenzimidazol-2-one]	63.1 nM
O=c1[nH]c2ccc(-c3c(Cl)cncc3Cl)cc2s1 [Example 134, 6-(3,5-Dichloro-4-pyridyl)-3H-1,3-benzothiazol-2-one]	63.1 nM
COCCn1cc(-c2cccc(Cl)c2-c2ccc3[nH]c(=O)[nH]c3c2)cn1 [Example 172, 5-[2-Chloro-6-[1-(2-methoxyethyl)pyrazol-4-yl]phenyl]-1,3-dihydrobenzimidazol-2-one]	2000 nM
Cc1c(-c2ccc3[nH]c(=O)[nH]c3c2)cccc1-c1noc(C2CC2)n1 [Example 73, 5-[3-(5-Cyclopropyl-1,2,4-oxadiazol-3-yl)-2-methyl-phenyl]-1,3-dihydrobenzimidazol-2-one]	31.6 nM
Cc1ccc(Cl)c(-c2ccc3[nH]c(=O)[nH]c3c2)c1 [Example 19, 5-(2-Chloro-5-methyl-phenyl)-1,3-dihydrobenzimidazol-2-one]	200 nM
Cc1cccc(C(F)(F)F)c1-c1ccc2[nH]c(=O)[nH]c2c1 [Example 57, 5-[2-Methyl-6-(trifluoromethyl)phenyl]-1,3-dihydrobenzimidazol-2-one]	631 nM
Cc1c(CN2CCOCC2C)cccc1-c1ccc2[nH]c(=O)[nH]c2c1 (stereo in doubt) [Example 153, (3S)-5-[2-Methyl-3-[[3-methylmorpholin-4-yl]methyl]phenyl]-1,3-dihydrobenzimidazol-2-one]	316 nM
Cc1c(CN2CCSCC2)cccc1-c1ccc2[nH]c(=O)[nH]c2c1 [Example 154, 5-[2-Methyl-3-(thiomorpholinomethyl)phenyl]-1,3-dihydrobenzimidazol-2-one]	200 nM
Cc1c(CN2CC(F)C2)cccc1-c1ccc2[nH]c(=O)[nH]c2c1 [Example 157, 5-[3-[(3-Fluoroazetidin-1-yl)methyl]-2-methyl-phenyl]-1,3-dihydrobenzimidazol-2-one]	6310 nM

Structure (SMILES)	IC50
O=c1[nH]c2ccc(-c3c(Cl)ccc(CN4CCOCC4)c3Cl)cc2[nH]1 [Example 139, 5-[2,6-Dichloro-3-(morpholinomethyl)phenyl]-1,3-dihydrobenzimidazol-2-one]	251 nM
Cc1c(CN2CCCCC2)cccc1-c1ccc2[nH]c(=O)[nH]c2c1 [Example 147, 5-[2-Methyl-3-(1-piperidylmethyl)phenyl]-1,3-dihydrobenzimidazol-2-one]	1580 nM
COC(=O)c1cccc(Cl)c1-c1ccc2[nH]c(=O)[nH]c2c1 [Example 42, Methyl 3-chloro-2-(2-oxo-1,3-dihydrobenzimidazol-5-yl)benzoate]	501 nM
CC(C)(C#N)c1cccc(Cl)c1-c1ccc2[nH]c(=O)[nH]c2c1 [Example 127, 2-[3-Chloro-2-(2-oxo-1,3-dihydrobenzimidazol-5-yl)phenyl]-2-methyl-propanenitrile]	25.1 nM
Cn1cc(-c2cccc(-c3ccc4[nH]c(=O)[nH]c4c3)c2Cl)cn1 [Example 185, 5-[2-Chloro-3-(1-methylpyrazol-4-yl)phenyl]-1,3-dihydrobenzimidazol-2-one]	50.1 nM
Cc1ccc(Cl)cc1-c1ccc2[nH]c(=O)[nH]c2c1 [Example 10, 5-(5-Chloro-2-methyl-phenyl)-1,3-dihydrobenzimidazol-2-one]	251 nM
O=C(Nc1ccccc1)c1ccc(Cl)c(-c2ccc3[nH]c(=O)[nH]c3c2)c1 [Example 83, 4-Chloro-3-(2-oxo-1,3-dihydrobenzimidazol-5-yl)-N-phenyl-benzamide]	2510 nM
COc1cncc(-c2cccc(Cl)c2-c2ccc3[nH]c(=O)[nH]c3c2)c1 [Example 168, 5-[2-Chloro-6-(5-methoxy-3-pyridyl)phenyl]-1,3-dihydrobenzimidazol-2-one]	398 nM
COc1cccc(C)c1-c1ccc2[nH]c(=O)[nH]c2c1 [Example 55]	794 nM
O=c1[nH]c2ccc(-c3cccc(N4CCCCC4)c3Cl)cc2[nH]1 [Example 188, 5-[2-Chloro-3-(1-piperidyl)phenyl]-1,3-dihydrobenzimidazol-2-one]	12.6 nM
O=c1[nH]c2ccc(-c3ccccc3Br)cc2[nH]1 [Example 35, 5-(2-Bromophenyl)-1,3-dihydrobenzimidazol-2-one]	251 nM
O=c1[nH]c2ccc(-c3c(Cl)cccc3-c3ccc(F)cc3)cc2[nH]1 [Example 163, 5-[2-Chloro-6-(4-fluorophenyl)phenyl]-1,3-dihydrobenzimidazol-2-one]	20 nM
CN1CCN(Cc2cccc(Cl)c2-c2ccc3[nH]c(=O)[nH]c3c2)CC1 [Example 146, 5-[2-Chloro-6-[(4-methylpiperazin-1-yl)methyl]phenyl]-1,3-dihydrobenzimidazol-2-one]	7940 nM
O=c1[nH]c2ccc(-c3ccccc3Cl)cc2[nH]1 [Example 17, 5-(2-Chlorophenyl)-1,3-dihydrobenzimidazol-2-one]	631 nM
N#CCc1cccc(-c2ccc3[nH]c(=O)[nH]c3c2)c1Cl [Example 130, 2-[2-Chloro-3-(2-oxo-1,3-dihydrobenzimidazol-5-yl)phenyl]acetonitrile]	2000 nM
Cc1noc(-c2cccc(-c3ccc4[nH]c(=O)[nH]c4c3)c2C)n1 [Example 203, 5-[2-Methyl-3-(3-methyl-1,2,4-oxadiazol-5-yl)phenyl]-1,3-dihydrobenzimidazol-2-one]	39.8 nM

System: endogenous γ 8-containing AMPA receptor currents
Assay: Whole-cell electrophysiology on acutely-dissociated mouse hippocampal neurons
Assay type: cell-based
Settings: 1 μM compound; 10 mM glutamate, 500 ms; held at −60 mV
Protocol: The effects of selected compounds upon endogenous γ 8-containing AMPA receptor currents was evaluated using whole-cell electrophysiology on acutely-dissociated mouse hippocampal neurons. Hippocampus was chosen for this assay, since CACNG8 (the protein encoded by this gene is a type I transmembrane AMPA receptor regulatory protein i.e., TARP) is preferentially enriched in this brain region (Tomita et al. (2003). “Functional studies and distribution define a family of transmembrane AMPA receptor regulatory proteins.” J Cell Biol 161(4): 805-816.2003).
Hippocampi were dissected from C57black6 mice at 4-12 weeks postnatal, following the protocol described by Brewer (Brewer, G. J. (1997). “Isolation and culture of adult rat hippocampal neurons.” Journal of Neuroscience Methods 71(2): 143-155). The following is a brief summary of the procedure. Mice were asphyxiated with CO2 then decapitated. The brain was rapidly removed, then placed into ice-cold HABG medium. The recipe for HABG medium was: HibernateA supplemented with 2% B27 and 0.5 mM Glutamax (all reagents from Life Technologies). Hippocampi were micro-dissected from the brains, then washed with HABG without calcium (Hibernate A minus Calcium, BrainBits; 2% B27, Life Technologies; 0.5 mM glutamax, Life Technologies).
The hippocampi were then transferred to HABG without calcium, supplemented with 2 mg/mL papain (Worthington Biochemical). They were incubated at 30° C. on a roller for 40 min, then gently triturated with a fire-polished glass pipette. The supernatant containing dissociated neurons was collected, then centrifuged for 2 min at 200 g. The cell pellet was collected, and then resuspended in 8 mL of HABG. Live cells were counted, then plated onto 12 mm glass coverslips in HABG (2 mL) in 24-well plates at a density of 50-100 cells per coverslip. These cells were maintained at room temperature until use.
Whole-cell electrophysiology was performed using 1.5 mm diameter glass capillary tubes (World Precision Instruments TW150-4), pulled to a fine tip with a Sutter P-97 micropipette puller. The intracellular buffer was 90 mM KF, 30 mM KCl, 10 mM HEPES, and 5 mM EGTA, pH 7.4, 290 mOs. The extracellular buffer was 135 mM NaCl, 4 mM KCl, 2 mM CaCl2), 1 mM MgCl2, 5 mM glucose, 10 mM HEPES, pH 7.4, 300 mOs. The open-tip resistances of the micropipettes using these solutions were 2-4MΩ. Whole-cell recordings of neuron cell bodies were performed in voltage-clamp mode using an Axon Axopatch 200B amplifier. Whole-cell current was measured holding the interior of the cell at −60 mV, using a 5 kHz lowpass filter. The cells were continuously perfused through 7 mm square glass barrels using a solenoid-controlled solution switching device (Warner Instruments, PF-77B). The peak current in response to a 500 ms exposure to 10 mM glutamate every 5 seconds was measured, before and after exposure to test compound.
For analysis, the mean peak current of 5 traces in the presence of test compound was divided by the mean peak current of 5 traces prior to the addition of test compound. Compounds were tested at concentrations at least ten times higher than their estimated potency in the calcium flux assay, in order to ensure near-saturating occupancy of the receptor.
The table below summarizes the results of this electrophysiological assay. Peak current (% control) is mean of the peak response to glutamate in the presence of the indicated compound, normalized to the peak response to glutamate in the absence of test compound. N is the number of neurons tested. The compounds were tested at concentrations noted below in Table 5. At the said tested concentrations, the peak response to glutamate was reduced compared to controls for all tested compounds.

Structure (SMILES)	peak current (% control)
O=c1[nH]c2ccc(-c3c(Cl)cccc3OC(F)(F)F)cc2[nH]1 [Example 31, 5-[2-Chloro-6-(trifluoromethoxy)phenyl]-1,3-dihydrobenzimidazol-2-one]	61%
